Source: PubChem BioAssay AID204 (DTP/NCI, 2004)
“And” between values parts separate entries of the source, which are not always exact repeats. Identical values can stand only once. Inconclusive results and toxic doses are left out.

Tested on: BDF1 mice, P288 methotrexate-resistant leukemia, survival T/C
Test: NCI In Vivo Anticancer Drug Screen. Data for tumor model P288 Lymphocytic Leukemia resistant to methotrexate; NSC 740 (intraperitoneal) in B6D2F1 (BDF1) mice
Conditions: endpoint: median survival time, higher = longer survival
Protocol: The antitumor activity of compounds was measured in mice bearing transplantable tumors. Survival or tumor size were measured and the results are expressed as the measurement made in the treated group (T) divided by the measurement made in the vehicle treated control group (C). The tumor model used in this assay is P288 Lymphocytic Leukemia resistant to methotrexate; NSC 740 (intraperitoneal) in B6D2F1 (BDF1) mice

[1] = dose: 15.0 mg/kg/injection, schedule: Q01DX010 (ip), vehicle: saline
[2] = dose: 30.0 mg/kg/injection, schedule: Q01DX010 (ip), vehicle: saline
[3] = dose: 60.0 mg/kg/injection, schedule: Q01DX010 (ip), vehicle: saline
[4] = dose: 2.0 mg/kg/injection, schedule: Q01DX010 (ip), vehicle: saline
[5] = dose: 4.0 mg/kg/injection, schedule: Q01DX010 (ip), vehicle: saline
[6] = dose: 8.0 mg/kg/injection, schedule: Q01DX010 (ip), vehicle: saline
[7] = dose: 5.0 mg/kg/injection, schedule: Q01DX010 (ip), vehicle: saline
[8] = dose: 10.0 mg/kg/injection, schedule: Q01DX010 (ip), vehicle: saline
[9] = dose: 20.0 mg/kg/injection, schedule: Q01DX010 (ip), vehicle: saline
[10] = dose: 40.0 mg/kg/injection, schedule: Q01DX010 (ip), vehicle: saline
[11] = dose: 125.0 mg/kg/injection, schedule: Q01DX010 (ip), vehicle: saline
[12] = dose: 250.0 mg/kg/injection, schedule: Q01DX010 (ip), vehicle: saline
[13] = dose: 500.0 mg/kg/injection, schedule: Q01DX010 (ip), vehicle: saline

Clc1ncnc2nc[nH]c12 was tested, and the T/C (dose: 7.5 mg/kg/injection, schedule: Q01DX010 (ip), vehicle: saline) was 93 % of control, the T/C [1] was 93 % of control and the T/C [2] was 93 % of control. For the same molecule, the T/C [3] was 100 % of control.

For N=[N+]=CC(=O)OCC(N)C(=O)O (stereo unspecified), the T/C (dose: 3.13 mg/kg/injection, schedule: Q01DX010 (ip), vehicle: saline) was 110 % of control, the T/C (dose: 6.25 mg/kg/injection, schedule: Q01DX010 (ip), vehicle: saline) was 112 % of control and 120 % of control and the T/C (dose: 12.5 mg/kg/injection, schedule: Q01DX010 (ip), vehicle: saline) was 108 % of control and 120 % of control. For the same molecule, the T/C (dose: 25.0 mg/kg/injection, schedule: Q01DX010 (ip), vehicle: saline) was 120 % of control.

For Nc1nc(N)c2nc(CNc3ccc(C(=O)NC(CCC(=O)O)C(=O)O)cc3)cnc2n1 (stereo unspecified), the T/C (dose: 0.03 mg/kg/injection, schedule: Q01DX010 (ip), vehicle: other) was 90 % of control and 111 % of control, the T/C (dose: 0.05 mg/kg/injection, schedule: Q01DX010 (ip), vehicle: other) was 100 % of control and the T/C (dose: 0.1 mg/kg/injection, schedule: Q01DX010 (ip), vehicle: other) was 100 % of control. For the same molecule, the T/C (dose: 0.2 mg/kg/injection, schedule: Q01DX010 (ip), vehicle: other) was 110 % of control and 111 % of control.

In the case of O=C(Nc1ccc(NC2=NCCN2)cc1)c1ccc(C(=O)Nc2ccc(NC3=NCCN3)cc2)cc1, the T/C [4] was 150 % of control, the T/C [5] was 240 % of control and 250 % of control and the T/C [6] was 250 % of control and 285 % of control. For the same molecule, the T/C (dose: 16.0 mg/kg/injection, schedule: Q01DX010 (ip), vehicle: saline) was 115 % of control.

For N=C(N)c1ccc(Nc2ccc(C(=N)N)cc2)cc1, the T/C (dose: 12.0 mg/kg/injection, schedule: Q01DX010 (ip), vehicle: saline) was 90 % of control.

In the case of O=c1[nH]c(=O)n(C2CC(O)C(CO)O2)cc1F (stereo unspecified), the T/C [7] was 95 % of control, the T/C [8] was 108 % of control and 111 % of control and the T/C [9] was 108 % of control and 115 % of control. The T/C [10] was 116 % of control and 123 % of control and the T/C (dose: 80.0 mg/kg/injection, schedule: Q01DX010 (ip), vehicle: saline) was 92 % of control.

For CC(=O)N(C)C, the T/C (dose: 62.5 mg/kg/injection, schedule: Q01DX010 (ip), vehicle: saline) was 95 % of control and 120 % of control, the T/C [11] was 90 % of control and 95 % of control and the T/C [12] was 105 % of control and 110 % of control. The T/C [13] was 110 % of control.

With C[C@]12C=CC(=O)C=C1CC[C@@H]1[C@@H]2[C@@H](O)C[C@@]2(C)[C@H]1CC[C@]2(O)C(=O)CO the T/C (dose: 25.0 mg/kg/injection, schedule: Q01DX010 (sc), vehicle: steriod suspending solution) was 118 % of control, the T/C (dose: 50.0 mg/kg/injection, schedule: Q01DX010 (sc), vehicle: steriod suspending solution) was 109 % of control and the T/C (dose: 100.0 mg/kg/injection, schedule: Q01DX010 (sc), vehicle: steriod suspending solution) was 100 % of control. For the same molecule, the T/C (dose: 200.0 mg/kg/injection, schedule: Q01DX010 (sc), vehicle: steriod suspending solution) was 100 % of control.

In the case of C[N+](C)(C)c1ncnc2nc[nH]c12, the T/C [1] was 90 % of control, the T/C [2] was 100 % of control and the T/C [3] was 90 % of control and 100 % of control. For the same molecule, the T/C (dose: 120.0 mg/kg/injection, schedule: Q01DX010 (ip), vehicle: saline) was 105 % of control and 113 % of control.

With S=P(N1CC1)(N1CC1)N1CC1 the T/C (dose: 0.75 mg/kg/injection, schedule: Q01DX010 (ip), vehicle: saline) was 100 % of control and 111 % of control, the T/C (dose: 1.5 mg/kg/injection, schedule: Q01DX010 (ip), vehicle: saline) was 111 % of control and the T/C (dose: 6.0 mg/kg/injection, schedule: Q01DX010 (ip), vehicle: saline) was 116 % of control and 120 % of control.

For Nc1nc(=S)c2[nH]cnc2[nH]1, the T/C (dose: 1.25 mg/kg/injection, schedule: Q01DX010 (ip), vehicle: other) was 88 % of control and 118 % of control, the T/C (dose: 2.5 mg/kg/injection, schedule: Q01DX010 (ip), vehicle: other) was 111 % of control and 112 % of control and the T/C (dose: 5.0 mg/kg/injection, schedule: Q01DX010 (ip), vehicle: other) was 111 % of control.

For CCOC(N)=O, the T/C [11] was 100 % of control, the T/C [12] was 100 % of control and the T/C [13] was 100 % of control. The T/C (dose: 1000.0 mg/kg/injection, schedule: Q01DX010 (ip), vehicle: saline) was 87 % of control and 88 % of control.

With CCN(CC)c1ccc2cc3ccc(=[N+](CC)CC)cc-3oc2c1 the T/C (dose: 1.0 mg/kg/injection, schedule: Q01DX010 (ip), vehicle: saline) was 90 % of control, the T/C [4] was 104 % of control and the T/C [5] was 100 % of control. For the same molecule, the T/C [6] was 90 % of control.

In the case of O[C@H](CN1CC1)[C@@H](O)CN1CC1, the T/C (dose: 62.5 micrograms/kg/injection, schedule: Q01DX010 (ip), vehicle: saline) was 100 % of control and the T/C (dose: 250.0 micrograms/kg/injection, schedule: Q01DX010 (ip), vehicle: saline) was 155 % of control and 181 % of control.

Nc1nc2n[nH]nc2c(=O)[nH]1 was tested, and the T/C (dose: 25.0 mg/kg/injection, schedule: Q01DX010 (ip), vehicle: alkali diluted with saline) was 110 % of control and the T/C (dose: 50.0 mg/kg/injection, schedule: Q01DX010 (ip), vehicle: alkali diluted with saline) was 112 % of control.

For C[C@@H]1C[C@@H]([C@H](O)CC2CC(=O)NC(=O)C2)C(=O)[C@@H](C)C1, the T/C [7] was 93 % of control and 94 % of control, the T/C [8] was 88 % of control and 100 % of control and the T/C [9] was 100 % of control. The T/C [10] was 111 % of control.
